Experimental data reported in patent publication US12668600B2 (Kumquat Biosciences Inc., priority 2023, dated 2026).
pIC50: −log10 of the molar value.

Molecular target: T1, KRAS G12D (Homo sapiens, UniProt P01116, G12D)
T1 construct: made in house; host or cells: E. coli, e.g. BL21 (DE3)
Test: HTRF KRAS-SOS1 interaction assay, KRAS G12D
Format: biochemical
Details: binned ≤2 μM / >2 μM, read-out: Inhibition of KRAS G12D (IC50)
From the text: This assay can be also used to assess a selective inhibition or reduction of signaling output of a mutant Ras protein relative to a wildtype, or relative to a different mutant Ras protein. For example, the equilibrium interaction of wildtype KRAS or K-Ras mutant (e.g., wildtype or a mutant thereof) with SOS1 (e.g., hSOS1) can be assessed as a proxy or an indication for the ability of a subject compound to bind and inhibit Ras protein. The HTRF assay detects from (i) a fluorescence resonance energy transfer (FRET) donor (e.g., antiGST-Europium) that is bound to GST-tagged K-Ras mutant to (ii) a FRET acceptor (e.g., anti-6His-XL665) bound to a His-tagged hSOS1.
The assay buffer can contain ˜5 mM HEPES pH 7.4, ˜150 mM NaCl, ˜1 mM DTT, 0.05% BSA and 0.0025% (v/v) Igepal. A Ras working solution is prepared in an assay buffer containing typically a suitable amount of the protein construct (e.g., GST-tagged K-Ras mutant) and the FRET donor (e.g., antiGST-Eu (K) from Cisbio, France). A SOS1 working solution is prepared in an assay buffer containing suitable amount of the protein construct (e.g., His-hSOS1) and the FRET acceptor (e.g., anti-6His-XL665 from Cisbio, France). A suitable amount of the protein construct will depend on the range of activity or range of IC50 values being detected or under investigation. For detecting an IC50 within a range of 500 nM, the protein constructs of the same range of molarity can be utilized.
A fixed volume of DMSO with or without test compound is transferred into a 384-well plate. Ras working solution is added to all wells of the test plate. SOS1 working solution is added to all wells except for those that are subsequently filled with inhibitor control solution. Upon incubation for about 10 minutes or longer, the fluorescence is measured with a M1000Pro plate reader (Tecan) using HTRF detection (excitation 337 nm, emission 1:620 nm, emission 2:665 nm). Compounds are tested in duplicate at different concentrations (for example, 10 μM, 2.5 μM, 0.63 μM, 0.16 μM, 0.04 μM, 0.01 μM test compound). The ratiometric data (i.e., emission 2 divided by emission 1) is used to calculate IC50 values against Ras using GraphPad Prism (GraphPad software). Signaling output measured in terms of IC50 values can be obtained and a ratio of IC50 against one mutant relative to another mutant can be calculated.

T1 sequence (P01116 1-188 isoform P01116-2 G12D): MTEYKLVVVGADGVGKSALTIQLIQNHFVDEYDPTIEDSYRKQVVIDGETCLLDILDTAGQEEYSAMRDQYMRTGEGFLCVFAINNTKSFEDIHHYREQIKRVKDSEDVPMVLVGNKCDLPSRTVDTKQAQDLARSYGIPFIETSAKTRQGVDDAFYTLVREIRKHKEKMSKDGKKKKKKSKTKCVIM

SMILES	pIC50
CC(c1cncnc1N)N1CCOc2c(Cl)c(-c3ccc(F)c4sc(N)c(C#N)c34)c(F)c3nc(OC[C@@]45CCCN4C[C@H](F)C5)nc1c23 (single isomer, unassigned) [Compound 699]	≥ 5.70
N#Cc1c(N)sc2c(F)ccc(-c3c(Cl)c4c5c(nc(OC[C@@]67CCCN6C[C@H](F)C7)nc5c3F)N(C(c3cccnc3N)C(F)F)CCO4)c12 (single isomer, unassigned) [Compound 786]	≥ 5.70
C[C@H](c1cccnc1N)N1CCOc2c(Cl)c(-c3cccc4sc(N)c(C#N)c34)c(F)c3nc(OC[C@@]45CCCN4CC(=C(F)F)C5)nc1c23 (single isomer, unassigned) [Compound 688]	≥ 5.70
CC(c1cccnc1N)N1c2nc(OC[C@@]34CCCN3C[C@H](F)C4)nc3c(F)c(-c4ccc(F)c5sc(N)c(C#N)c45)c(Cl)c(c23)OC[C@@H]1CC#N (mixture of isomers) [Compound 716, 2-amino-4-((5S)-4-(1-(2-aminopyridin-3-yl)ethyl)-8-chloro-5-(cyanomethyl)-10-fluoro-2-(((2R,7aS)-2-fluorotetrahydro-1H-pyrrolizin-7a(5H)-yl)methoxy)-5,6-dihydro-4H-[1,4]oxazepino[5,6,7-de]quinazolin-9-yl)-7-fluorobenzo[b]thiophene-3-carbonitrile]	≥ 5.70
N#Cc1c(N)sc2c(F)ccc(-c3c(C(F)(F)F)c4c5c(nc(OC[C@@]67CCCN6C[C@H](F)C7)nc5c3F)N([C@H](CCC3CCOCC3)c3cccnc3N)CCO4)c12 (single isomer, unassigned) [Compound 696]	≥ 5.70
C[C@H](c1ccc(F)nc1N)N1CCOc2c(C(F)(F)F)c(-c3ccc(F)c4sc(N)c(C#N)c34)c(F)c3nc(OC[C@@]45CCCN4C[C@H](F)C5)nc1c23 (single isomer, unassigned) [Compound 726]	≥ 5.70
N#Cc1c(N)sc2c(F)ccc(-c3c(C(F)(F)F)c4c5c(nc(OC[C@@]67CCCN6C[C@H](F)C7)nc5c3F)N([C@H](CCN3CCOCC3)c3cccnc3N)CCO4)c12 (single isomer, unassigned) [Compound 735]	≥ 5.70
C[C@H](c1cccnc1N)N1CCOc2c(Cl)c(-c3ccc(F)c4sc(N)c(C#N)c34)c(F)c3nc(OCC4(CN(C)C)CC4)nc1c23 (single isomer, unassigned) [Compound 771]	≥ 5.70
N#Cc1c(N)sc2c(F)ccc(-c3c(Cl)c4c5c(nc(OC[C@@]67CCCN6C[C@H](F)C7)nc5c3F)N(C(C=C(F)F)c3cccnc3N)CCO4)c12 (single isomer, unassigned) [Compound 712]	≥ 5.70
CN(C)CC[C@H](c1cccnc1N)N1CCOc2c(C(F)(F)F)c(-c3ccc(F)c4sc(N)c(C#N)c34)c(F)c3nc(OC[C@@]45CCCN4C[C@H](F)C5)nc1c23 (single isomer, unassigned) [Compound 758]	≥ 5.70
N#Cc1c(N)sc2c(F)ccc(-c3c(C(F)(F)F)c4c5c(nc(OC[C@@]67CCCN6C[C@H](F)C7)nc5c3F)N([C@@H](c3cccnc3N)C(F)F)CCO4)c12 (single isomer, unassigned) [Compound 804]	≥ 5.70
C=Cc1c(-c2ccc(F)c3sc(N)c(C#N)c23)c(F)c2nc(OC[C@@]34CCCN3C[C@H](F)C4)nc3c2c1OCCN3[C@H](C)c1cccnc1N (single isomer, unassigned) [Compound 787]	≥ 5.70
Cc1cnc(N)c([C@@H](C)N2CCOc3c(C(F)(F)F)c(-c4ccc(F)c5sc(N)c(C#N)c45)c(F)c4nc(OC[C@@]56CCCN5C[C@H](F)C6)nc2c34)n1 (single isomer, unassigned) [Compound 767]	≥ 5.70
C[C@H](c1cccnc1N)N1CCOc2c(C(F)(F)F)c(-c3cccc4sc(N)c(C#N)c34)c(F)c3nc(OC[C@@]45CCCN4C[C@H](F)C5)nc1c23 (single isomer, unassigned) [Compound 791]	≥ 5.70
N#Cc1c(N)sc2c(F)ccc(-c3c(Cl)c4c5c(nc(OC[C@@]67CCCN6C[C@H](F)C7)nc5c3F)N(C(CC(F)F)c3cccnc3N)CCO4)c12 (mixture of isomers) [Compound 776, 2-amino-4-(4-(1-(2-aminopyridin-3-yl)-3,3-difluoropropyl)-8-chloro-10-fluoro-2-(((2R,7aS)-2-fluorotetrahydro-1H-pyrrolizin-7a(5H)-yl)methoxy)-5,6-dihydro-4H-[1,4]oxazepino[5,6,7-de]quinazolin-9-yl)-7-fluorobenzo[b]thiophene-3-carbonitrile]	≥ 5.70
C[C@H](c1cccnc1N)N1CCOc2c(C(F)(F)F)c(-c3ccc(F)c4sc(N)c(C#N)c34)c(F)c3nc(OC[C@@]45CCCN4CC(C#N)C5)nc1c23 (single isomer, unassigned) [Compound 754]	≥ 5.70
N#Cc1c(N)sc2c(F)ccc(-c3c(C(F)(F)F)c4c5c(nc(OC[C@@]67CCCN6C[C@H](F)C7)nc5c3F)N([C@H](CCC3CC(F)(F)C3)c3cccnc3N)CCO4)c12 (single isomer, unassigned) [Compound 724]	≥ 5.70
N#Cc1c(N)sc2c(F)ccc(-c3c(C(F)(F)F)c4c5c(nc(OC[C@@]67CCCN6C[C@H](F)C7)nc5c3F)N([C@H](CC3CC(F)(F)C3)c3cccnc3N)CCO4)c12 (single isomer, unassigned) [Compound 703]	≥ 5.70
N#Cc1c(N)sc2c(F)ccc(-c3c(C(F)(F)F)c4c5c(nc(OC[C@@]67CCCN6C[C@H](F)C7)nc5c3F)N([C@H](CCC3COCCO3)c3cccnc3N)CCO4)c12 (single isomer, unassigned) [Compound 701]	≥ 5.70

The next lines start with the values.

pIC50	SMILES
≥ 5.70	CC(c1cccnc1N)N1CCOc2c(Cl)c(-c3ccc(F)c4sc(N)c(C#N)c34)c(F)c3nc(OC[C@@]45CCCN4C[C@H](F)C5)nc1c23 (single isomer, unassigned) [Compound 820]
≥ 5.70	C[C@H](c1cccnc1N)N1CCOc2c(Cl)c(-c3cccc4sc(N)c(C#N)c34)c(F)c3nc(OC[C@@]45CCCN4C[C@H](F)C5)nc1c23 (single isomer, unassigned) [Compound 823]
≥ 5.70	C[C@H]1CN([C@@H](c2cccnc2N)C(F)F)c2nc(OC[C@@]34CCCN3C[C@H](F)C4)nc3c(F)c(-c4ccc(F)c5sc(N)c(C#N)c45)c(C(F)(F)F)c(c23)O1 (single isomer, unassigned) [Compound 889]
≥ 5.70	N#Cc1c(N)sc2c(F)ccc(-c3c(C(F)(F)F)c4c5c(nc(OC[C@@]67CCCN6C[C@H](F)C7)nc5c3F)N([C@H](CC3CCOCC3)c3cccnc3N)CCO4)c12 (single isomer, unassigned) [Compound 824]
≥ 5.70	C[C@H](c1cccnc1N)N1CCOc2c(Cl)c(-c3ccc(F)c4sc(N)c(C#N)c34)c(F)c3nc(OCC45CCCN4C[C@H](OCCCP(C)(C)=O)C5)nc1c23 (single isomer, unassigned) [Compound 857]
≥ 5.70	CCC(c1cccnc1N)N1CCOc2c(Cl)c(-c3ccc(F)c4sc(N)c(C#N)c34)c(F)c3nc(OC[C@@]45CCCN4C[C@H](F)C5)nc1c23 (mixture of isomers) [Compound 844, 2-amino-4-(4-(1-(2-aminopyridin-3-yl)propyl)-8-chloro-10-fluoro-2-(((2R,7aS)-2-fluorotetrahydro-1H-pyrrolizin-7a(5H)-yl)methoxy)-5,6-dihydro-4H-[1,4]oxazepino[5,6,7-de]quinazolin-9-yl)-7-fluorobenzo[b]thiophene-3-carbonitrile]
≥ 5.70	N#Cc1c(N)sc2c(F)ccc(-c3c(Cl)c4c5c(nc(OC[C@@]67CCCN6C[C@H](F)C7)nc5c3F)N(C(/C=C\C(F)(F)F)c3cccnc3N)CCO4)c12 (single isomer, unassigned) [Compound 872]
≥ 5.70	CS(=O)(=O)CCC[C@H](c1cccnc1N)N1CCOc2c(C(F)(F)F)c(-c3ccc(F)c4sc(N)c(C#N)c34)c(F)c3nc(OC[C@@]45CCCN4C[C@H](F)C5)nc1c23 (single isomer, unassigned) [Compound 805]
≥ 5.70	CP(C)(=O)CC[C@H](c1cccnc1N)N1CCOc2c(C(F)(F)F)c(-c3ccc(F)c4sc(N)c(C#N)c34)c(F)c3nc(OC[C@@]45CCCN4C[C@H](F)C5)nc1c23 (single isomer, unassigned) [Compound 891]
≥ 5.70	CCO/N=C1\CN2CCC[C@@]2(COc2nc3c4c(c(Cl)c(-c5ccc(F)c6sc(N)c(C#N)c56)c(F)c4n2)OCCN3[C@H](C)c2cccnc2N)C1 (single isomer, unassigned) [Compound 865]
